# Data taken from PubChem BioAssay (NCI).
#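 Method: 48-hour compound exposure of cells in 96-well plates, five concentrations, linear interpolation of endpoints. TGI denotes the concentration required for complete inhibition of growth.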
# Columns and labels:
# Test in all cases: NCI-60 cell line screen, 48 h
# 786-0 renal = test system: 786-0 renal
# A498 renal = test system: A498 renal
# A549 NSCLC = test system: A549 NSCLC
# ACHN renal = test system: ACHN renal
# BT-549 breast = test system: BT-549 breast
# CAKI-1 renal = test system: CAKI-1 renal
# CCRF-CEM leukemia = test system: CCRF-CEM leukemia
# COLO 205 colon = test system: COLO 205 colon
# DU-145 prostate = test system: DU-145 prostate
# EKVX NSCLC = test system: EKVX NSCLC
# HCT-116 colon = test system: HCT-116 colon
# HL-60(TB) leukemia = test system: HL-60(TB) leukemia
# HOP-62 NSCLC = test system: HOP-62 NSCLC
# HOP-92 NSCLC = test system: HOP-92 NSCLC
# HS 578T breast = test system: HS 578T breast
# HT29 colon = test system: HT29 colon
# IGROV1 ovarian = test system: IGROV1 ovarian
# K-562 leukemia = test system: K-562 leukemia
# KM12 colon = test system: KM12 colon
# LOX IMVI melanoma = test system: LOX IMVI melanoma
# MALME-3M melanoma = test system: MALME-3M melanoma
# MCF7 breast = test system: MCF7 breast
# MDA-MB-231 breast = test system: MDA-MB-231 breast
# MDA-MB-435 = test system: MDA-MB-435
# MDA-N = test system: MDA-N
# NCI-H226 lung = test system: NCI-H226 lung
# NCI-H23 lung = test system: NCI-H23 lung
# NCI-H522 lung = test system: NCI-H522 lung
# NCI/ADR-RES ovarian = test system: NCI/ADR-RES ovarian
# OVCAR-3 ovarian = test system: OVCAR-3 ovarian
# OVCAR-5 ovarian = test system: OVCAR-5 ovarian
# OVCAR-8 ovarian = test system: OVCAR-8 ovarian
# PC-3 prostate = test system: PC-3 prostate
# RPMI-8226 leukemia = test system: RPMI-8226 leukemia
# RXF 393 renal = test system: RXF 393 renal
# SF-268 CNS = test system: SF-268 CNS
# SF-295 CNS = test system: SF-295 CNS
# SK-MEL-2 melanoma = test system: SK-MEL-2 melanoma
# SK-MEL-28 melanoma = test system: SK-MEL-28 melanoma
# SK-MEL-5 melanoma = test system: SK-MEL-5 melanoma
# SK-OV-3 ovarian = test system: SK-OV-3 ovarian
# SN12C renal = test system: SN12C renal
# SNB-75 CNS = test system: SNB-75 CNS
# SR leukemia = test system: SR leukemia
# SW-620 colon = test system: SW-620 colon
# T-47D breast = test system: T-47D breast
# TK-10 renal = test system: TK-10 renal
# U251 CNS = test system: U251 CNS
# UACC-257 melanoma = test system: UACC-257 melanoma
# UACC-62 melanoma = test system: UACC-62 melanoma
# UO-31 renal = test system: UO-31 renal
# HCC-2998 colon = test system: HCC-2998 colon
# HCT-15 colon = test system: HCT-15 colon
# M14 melanoma = test system: M14 melanoma
# MOLT-4 leukemia = test system: MOLT-4 leukemia
# OVCAR-4 ovarian = test system: OVCAR-4 ovarian
# SF-539 CNS = test system: SF-539 CNS
# SNB-19 CNS = test system: SNB-19 CNS
# NCI-H460 lung = test system: NCI-H460 lung
compound,measurement,setting,value
COC(=O)[C@H]1CO[C@@H](C(C)(C)C)N1C(=O)N1C=CC(=O)C[C@@H]1C,TGI,786-0 renal,> 100 µM
same,TGI,A498 renal,> 100 µM
same,TGI,A549 NSCLC,> 100 µM
same,TGI,ACHN renal,> 100 µM
same,TGI,BT-549 breast,> 100 µM
same,TGI,CAKI-1 renal,> 100 µM
same,TGI,CCRF-CEM leukemia,> 100 µM
same,TGI,COLO 205 colon,> 100 µM
same,TGI,DU-145 prostate,> 100 µM
same,TGI,EKVX NSCLC,> 100 µM
same,TGI,HCT-116 colon,> 100 µM
same,TGI,HL-60(TB) leukemia,> 100 µM
same,TGI,HOP-62 NSCLC,> 100 µM
same,TGI,HOP-92 NSCLC,> 100 µM
same,TGI,HS 578T breast,> 100 µM
same,TGI,HT29 colon,> 100 µM
same,TGI,IGROV1 ovarian,> 100 µM
same,TGI,K-562 leukemia,> 100 µM
same,TGI,KM12 colon,> 100 µM
same,TGI,LOX IMVI melanoma,> 100 µM
same,TGI,MALME-3M melanoma,> 100 µM
same,TGI,MCF7 breast,> 100 µM
same,TGI,MDA-MB-231 breast,> 100 µM
same,TGI,MDA-MB-435,> 100 µM
same,TGI,MDA-N,> 100 µM
same,TGI,NCI-H226 lung,> 100 µM
same,TGI,NCI-H23 lung,> 100 µM
same,TGI,NCI-H522 lung,> 100 µM
same,TGI,NCI/ADR-RES ovarian,> 100 µM
same,TGI,OVCAR-3 ovarian,> 100 µM
same,TGI,OVCAR-5 ovarian,> 100 µM
same,TGI,OVCAR-8 ovarian,> 100 µM
same,TGI,PC-3 prostate,> 100 µM
same,TGI,RPMI-8226 leukemia,> 100 µM
same,TGI,RXF 393 renal,> 100 µM
same,TGI,SF-268 CNS,> 100 µM
same,TGI,SF-295 CNS,> 100 µM
same,TGI,SK-MEL-2 melanoma,> 100 µM
same,TGI,SK-MEL-28 melanoma,> 100 µM
same,TGI,SK-MEL-5 melanoma,> 100 µM
same,TGI,SK-OV-3 ovarian,> 100 µM
same,TGI,SN12C renal,> 100 µM
same,TGI,SNB-75 CNS,> 100 µM
same,TGI,SR leukemia,> 100 µM
same,TGI,SW-620 colon,> 100 µM
same,TGI,T-47D breast,> 100 µM
same,TGI,TK-10 renal,> 100 µM
same,TGI,U251 CNS,> 100 µM
same,TGI,UACC-257 melanoma,> 100 µM
same,TGI,UACC-62 melanoma,> 100 µM
same,TGI,UO-31 renal,> 100 µM
COc1ccc(C(OCC2OC(n3cc(C)c(=O)[nH]c3=O)CC2n2cc(Cn3cc(I)c(=O)[nH]c3=O)nn2)(c2ccccc2)c2ccccc2)cc1 (stereo unspecified),TGI,786-0 renal,> 100 µM
same,TGI,A498 renal,> 100 µM
same,TGI,A549 NSCLC,> 100 µM
same,TGI,ACHN renal,> 100 µM
same,TGI,BT-549 breast,> 100 µM
same,TGI,CAKI-1 renal,> 100 µM
same,TGI,CCRF-CEM leukemia,> 100 µM
same,TGI,COLO 205 colon,> 100 µM
same,TGI,DU-145 prostate,> 100 µM
same,TGI,EKVX NSCLC,> 100 µM
same,TGI,HCC-2998 colon,> 100 µM
same,TGI,HCT-116 colon,> 100 µM
same,TGI,HCT-15 colon,> 100 µM
same,TGI,HL-60(TB) leukemia,5.55 µM
same,TGI,HOP-62 NSCLC,> 100 µM
same,TGI,HOP-92 NSCLC,> 100 µM
same,TGI,HS 578T breast,> 100 µM
same,TGI,HT29 colon,> 100 µM
same,TGI,IGROV1 ovarian,> 100 µM
same,TGI,KM12 colon,> 100 µM
same,TGI,LOX IMVI melanoma,> 100 µM
same,TGI,M14 melanoma,> 100 µM
same,TGI,MALME-3M melanoma,> 100 µM
same,TGI,MCF7 breast,> 100 µM
same,TGI,MDA-MB-231 breast,> 100 µM
same,TGI,MDA-MB-435,> 100 µM
same,TGI,MDA-N,> 100 µM
same,TGI,MOLT-4 leukemia,> 100 µM
same,TGI,NCI-H226 lung,> 100 µM
same,TGI,NCI-H23 lung,> 100 µM
same,TGI,NCI-H522 lung,> 100 µM
same,TGI,NCI/ADR-RES ovarian,> 100 µM
same,TGI,OVCAR-3 ovarian,> 100 µM
same,TGI,OVCAR-4 ovarian,> 100 µM
same,TGI,OVCAR-5 ovarian,> 100 µM
same,TGI,OVCAR-8 ovarian,> 100 µM
same,TGI,PC-3 prostate,> 100 µM
same,TGI,RPMI-8226 leukemia,> 100 µM
same,TGI,RXF 393 renal,> 100 µM
same,TGI,SF-268 CNS,> 100 µM
same,TGI,SF-295 CNS,> 100 µM
same,TGI,SF-539 CNS,> 100 µM
same,TGI,SK-MEL-2 melanoma,> 100 µM
same,TGI,SK-MEL-28 melanoma,> 100 µM
same,TGI,SK-MEL-5 melanoma,> 100 µM
same,TGI,SK-OV-3 ovarian,> 100 µM
same,TGI,SN12C renal,> 100 µM
same,TGI,SNB-19 CNS,> 100 µM
same,TGI,SNB-75 CNS,> 100 µM
same,TGI,SR leukemia,> 100 µM
same,TGI,SW-620 colon,> 100 µM
same,TGI,T-47D breast,> 100 µM
same,TGI,TK-10 renal,> 100 µM
same,TGI,U251 CNS,> 100 µM
same,TGI,UACC-257 melanoma,> 100 µM
same,TGI,UACC-62 melanoma,> 100 µM
same,TGI,UO-31 renal,> 100 µM
O=C(O)CSc1ccc([N+](=O)[O-])cc1[N+](=O)[O-],TGI,786-0 renal,> 100 µM
same,TGI,A498 renal,> 100 µM
same,TGI,A549 NSCLC,> 100 µM
same,TGI,ACHN renal,> 100 µM
same,TGI,BT-549 breast,> 100 µM
same,TGI,CAKI-1 renal,> 100 µM
same,TGI,DU-145 prostate,> 100 µM
same,TGI,EKVX NSCLC,> 100 µM
same,TGI,HCC-2998 colon,> 100 µM
same,TGI,HCT-116 colon,> 100 µM
same,TGI,HCT-15 colon,> 100 µM
same,TGI,HL-60(TB) leukemia,> 100 µM
same,TGI,HOP-62 NSCLC,> 100 µM
same,TGI,HOP-92 NSCLC,> 100 µM
same,TGI,HS 578T breast,> 100 µM
same,TGI,HT29 colon,> 100 µM
same,TGI,IGROV1 ovarian,> 100 µM
same,TGI,K-562 leukemia,> 100 µM
same,TGI,KM12 colon,> 100 µM
same,TGI,LOX IMVI melanoma,> 100 µM
same,TGI,M14 melanoma,> 100 µM
same,TGI,MALME-3M melanoma,> 100 µM
same,TGI,MCF7 breast,> 100 µM
same,TGI,MDA-MB-231 breast,> 100 µM
same,TGI,MDA-MB-435,> 100 µM
same,TGI,MDA-N,> 100 µM
same,TGI,NCI-H23 lung,> 100 µM
same,TGI,NCI-H460 lung,> 100 µM
same,TGI,NCI-H522 lung,> 100 µM
same,TGI,NCI/ADR-RES ovarian,> 100 µM
same,TGI,OVCAR-3 ovarian,> 100 µM
same,TGI,OVCAR-4 ovarian,> 100 µM
same,TGI,OVCAR-5 ovarian,> 100 µM
same,TGI,OVCAR-8 ovarian,> 100 µM
same,TGI,PC-3 prostate,> 100 µM
same,TGI,RPMI-8226 leukemia,> 100 µM
same,TGI,RXF 393 renal,> 100 µM
same,TGI,SF-268 CNS,> 100 µM
same,TGI,SF-295 CNS,> 100 µM
same,TGI,SK-MEL-2 melanoma,> 100 µM
same,TGI,SK-MEL-28 melanoma,> 100 µM
same,TGI,SK-OV-3 ovarian,> 100 µM
same,TGI,SN12C renal,> 100 µM
same,TGI,SNB-19 CNS,> 100 µM
same,TGI,SNB-75 CNS,> 100 µM
same,TGI,SR leukemia,> 100 µM
same,TGI,SW-620 colon,> 100 µM
same,TGI,T-47D breast,> 100 µM
same,TGI,TK-10 renal,> 100 µM
same,TGI,U251 CNS,> 100 µM
same,TGI,UACC-257 melanoma,> 100 µM
same,TGI,UACC-62 melanoma,> 100 µM
same,TGI,UO-31 renal,> 100 µM
